The test system of test [1] is injury-induced mechanical hypersensitivity. Conditions: cited from earlier work.
Test [2] deals with Spared Nerve Injury (SNI) model of neuropathic pain. In words: Spared Nerve Injury (SNI) model of neuropathic pain, Von Frey up-down mechanical threshold. The test is classed as in vivo, mice. Conditions: SNI day 14, per os, 30 μg/mL solution in HPMC vehicle; peptides significant as soon as 1 hour (p value<0.01).
Test [3] has as its system spinal lamina II interneurons. Conditions: spinal lamina II interneurons (WO2014180853); cited from earlier work.

Consider “TAFA4 FL: human TAFA-4 full length mature protein (SEQ ID NO: 5) of 105 amino acid residues”, for which the “effect on prolonged nerve injury-induced mechanical hypersensitivity of TAFA-4 gene deleted mice” value in test [1] (intrathecal injection (Delfini et al., 2013)) is “reversed”. For the same substance, the “effect on mechanical hypersensitivity” value in test [1] (male and female mice, intrathecal and subcutaneous administration (WO2014180853)) was “reverses inflammatory, postoperative and nerve injury-induced mechanical hypersensitivity”. The “antalgic effect (reversal of mechanical threshold)” value in test [2] is “did not show significant antalgic effect”. Further, the “effect on nerve injury-induced neuronal sensitization” value in test [3] is “can reverse nerve injury-induced neuronal sensitization of the spinal lamina II interneurons”.

The values above are taken from patent US20250213654A1, “PEPTIDES AND METHODS FOR USE IN TREATING PAIN” (TAFALGIE THERAPEUTICS, priority 2022, published 2025).
